Assay results: the NIST ThermoML archive (doi:10.1016/j.fluid.2014.04.019)

Experiment: xn = mol fraction of the nth substance listed
Conditions: 101 kPa, Liquid

OCCOCCO [diethylene glycol] + CN(C)C=O
Conditions | kinematic viscosity, 298.15 K [m2/s] | kinematic viscosity, 303.15 K [m2/s] | kinematic viscosity, 308.15 K [m2/s] | mass density, 298.15 K [kg/m3] | mass density, 303.15 K [kg/m3] | mass density, 308.15 K [kg/m3]
x2 = 0 | 2.76e-05 | 2.13e-05 | 1.68e-05 | 1113 | 1109.2 | 1106.1
x2 = 0.0714 | 1.96e-05 | 1.53e-05 | 1.19e-05 | 1104.1 | 1100 | 1096.7
x2 = 0.1393 | 1.57e-05 | 1.24e-05 | 9.67e-06 | 1094.9 | 1090.8 | 1087.3
x2 = 0.2041 | 1.26e-05 | 1.01e-05 | 8.08e-06 | 1085.9 | 1081.9 | 1078.2
x2 = 0.2683 | 1.02e-05 | 8.29e-06 | 6.7e-06 | 1076.7 | 1072.6 | 1068.7
x2 = 0.3266 | 8.33e-06 | 6.84e-06 | 5.59e-06 | 1068.1 | 1063.9 | 1059.9
x2 = 0.3834 | 6.84e-06 | 5.68e-06 | 4.69e-06 | 1059.4 | 1055.2 | 1051
x2 = 0.4384 | 5.66e-06 | 4.76e-06 | 3.98e-06 | 1050.9 | 1046.5 | 1042.2
x2 = 0.4917 | 4.71e-06 | 4e-06 | 3.38e-06 | 1042.3 | 1037.9 | 1033.5
x2 = 0.5429 | 3.94e-06 | 3.38e-06 | 2.88e-06 | 1033.8 | 1029.4 | 1024.8
x2 = 0.5865 | 3.4e-06 | 2.93e-06 | – | 1026.4 | 1022 | –
x2 = 0.6394 | 2.83e-06 | 2.47e-06 | – | 1017.2 | 1012.7 | –
x2 = 0.6819 | 2.44e-06 | 2.15e-06 | – | 1009.5 | 1005 | –
x2 = 0.7294 | 2.08e-06 | 1.85e-06 | – | 1000.7 | 996.1 | –
x2 = 0.7721 | 1.8e-06 | 1.62e-06 | – | 992.5 | 987.9 | –
x2 = 0.813 | 1.57e-06 | 1.42e-06 | – | 984.5 | 979.7 | –
x2 = 0.8531 | 1.38e-06 | 1.25e-06 | – | 976.4 | 971.5 | –
x2 = 0.891 | 1.22e-06 | 1.12e-06 | – | 968.5 | 963.6 | –
x2 = 0.9288 | 1.08e-06 | 1e-06 | – | 960.2 | 955.4 | –
x2 = 0.9648 | 9.67e-07 | 9.04e-07 | – | 952.2 | 947.6 | –
